Results published in patent publication US6667173B2, “Nucleic acids encoding platelet derived growth factor-alpha receptors” (The Schepens Eye Research Institute, priority 2000, dated 2003).
Entries after “also recorded” stand apart in the source; their conditions may differ.

Tests used:
FCX^2, Fα and Fβ cells = experiment: Collagen gel contraction assay of cells with no PDGFRs, αPDGFR or βPDGFR; type: cell-based, mouse; details: 50 ng/ml PDGF-BB; 24, 48, 72 hours
Description: The contraction assay was based on a previously described reference, Skuta, G. et al. (1999) J. Biol. Chem. 274:30163, with the following modifications. Fα cells were suspended in 1.5 mg/ml of neutralized collagen I (Cohesion vitrogen 100, Palo Alto, Calif.) at a density of 10^6 cells/ml, and were transferred into the 24-well plate (Falcon, Franklyn Lakes, N.J.) that had been preincubated with phosphate-buffer saline (PBS) with 5 mg/ml of bovine serum albumin (BSA) overnight. The gel was solidified by incubating at 37° C. for 90 minutes, and then the well was flooded with DMEM+5 mg/ml of BSA supplemented with an amount of vitreous such that the final concentration of vitreous in the culture medium was 1, 5 or 20%. […] The media was replaced every 24 hours and the gel diameter was measured after 48 hours. The extent of contraction was calculated by subtracting the diameter of the well at 48 hours from the initial diameter (15 mm). […]
The experiments described in Example 9 (FIG. 7B) were repeated with cells that express the βPDGFR (Fβ) instead of the αPDGFR, or no PDGFRs (FCX^2). Contraction was scored at the 48 hours time point. […]
To more directly test whether TGFβ could moderate contraction of fibroblasts via the αPDGFR, the response of the three cell lines to purified TGFβ was examined. […] The gel diameter was measured after 24, 48, or 72 hours, and the media was replaced every day.

αPDGFR = biological target: T1, αPDGFR (Homo sapiens, UniProt P16234); experiment: Tyrosine phosphorylation of the αPDGFR in TGFβ- or PDGF-treated F cells; type: cell-based; details: Fα cells; 50 ng/ml PDGF-BB 5 minutes or 1 ng/ml TGFβ1 5 minutes to 8 hours
T1 construct: expressed in transfected cells; host or cells: F cells (SV-40 immortalized mouse embryo fibroblasts lacking both PDGFRs), giving Fα
Description: To show the effect of TGFβ on αPDGFR, the tyrosine phosphorylation state of the αPDGFR was assayed in TGFβ-treated cells. The F cells with or without PDGFR were grown to 80% confluent and then starved with DMEM containing 1% FBS for 20 hours. Cells were exposed at 37° C. for 5 minutes to either 50 ng/ml of PDGF-BB; with 1 ng/ml of TGFβ1 for 5 minutes, 1 hour, 2 hours, 4 hours, 6 hours or 8 hours; or were left unstimulated. After treatment the cells were washed twice with H/S (20 mM Hepes, pH 7.4, 150 mM NaCl) and then lysed in EB (10 mM Tris-HCl, pH 7.4, 5 mM EDTA, 50 mM NaCl, 50 mM NaF, 1% Triton-X 100, 0.1% BSA, 20 μg/ml aprotinin, 2 mM Na3VO4, 1 mM phenylmethylsulfonyl fluoride; PMSF). Lysates were centrifuged for 15 minutes at 13,000×g, the pellet was discarded and the soluble fraction was used as the total cell lysate. The protein concentration was measured using protein assay kit (Pierce, Rockfield, Ill.) following the manufacture's instructions.
Receptors were immunoprecipitated from the soluble fraction with the 27P antibody (described above). Immune complex was bound to formalin-fixed membranes of Staphylococcus aureus, spun through an EB sucrose gradient, and washed twice with EB, then with PAN (10 mM Pipes, pH 7.0, 100 mM NaCl, 1% aprotinin)+0.5% Nonidet P-40 (NP-40), and finally with PAN. The samples were resuspended in PAN before using for kinase assay or western blotting. […]

SHP-2 = experiment: Co-immunoprecipitation of SHP-2 with αPDGFR mutants in F cells; type: cell-based, mouse; details: 50 ng/ml PDGF-BB, 5 minutes
Description: (§1) The ability of the αPDGFR mutants to undergo ligand dependent tyrosine phosphorylation and to associate with signaling enzymes was then tested. F cells expressing various αPDGFR mutants were grown to subconfluence and serum starved overnight. Cells were either left resting (−) or stimulated with 50 ng/ml PDGF-BB (+) for 5 minutes, and lysed. The αPDGFR was immunoprecipitated with αPDGFR antibody, as described above, and the resulting immunoprecipitates were resolved by 7.5% SDS-PAGE and transferred onto Immobilon. The segment of the blot containing the αPDGFR was first blotted with anti-phosphotyrosine antibodies, then stripped and reprobed with an anti-αPDGFR antibody. Portions of the membrane that contained the proteins of the appropriate molecular mass were immunoblotted for PLCγ, the regulatory subunit of PI3K (p85), or SHP-2. Crude rabbit anti-p85 antibody is from Dr. A. Toker (Beth Israel Hospital/Harvard Medical School, Boston, Mass.). The monoclonal antibodies against PLCγ and SHP-2 were purchased from Upstate Biotechnology Inc.

rabbit eyes = experiment: Rabbit PVR model: F cells expressing αPDGFR mutants injected into the vitreous; type: in vivo; details: up to 28 days after the surgery
Description: PVR was induced in the rabbit eyes as previously described (Andrews, A. et al. (1999) Invest. Ophthalmol. Vis. Sci. 40:2683 and Nakagawa, M. et al. (1995) Invest. Ophthalmol. Vis. Sci. 36:2388). Briefly, gas vitrectomy was performed by injecting 0.4 ml of expanding perfluoropropane gas (C3F8) into the vitreous cavity 4 mm posterior to the corneal limbus under anesthetical condition. Three days later, the rabbits were anesthetized and the pupils were dilated. 0.1 ml DMEM containing 1×10^5 of RCFs expressing empty vector or αPDGFR mutant were injected into the vitreous cavity together with 0.1 ml of PRP using 30 G needle. Ten rabbits underwent surgery for each cell population expressing the empty vector or the truncated, E587K, T665M, D818N, or V859M αPDGFR mutants. One rabbit in the D818N group died just after the surgery, therefore the total number is 9 for this group. The retinal status was evaluated with an indirect ophthalmoscope fitted with a +30 D fundus lens at 1, 4, 7, 14, 21, and 28 days after the surgery. The PVR was graded from 0 through 5 according to the Fastenberg score. Fastenberg, D. M. et al. (1982) Am. J. Ophthalmol. 93:565. The grading is as follows: 0; no abnormality, 1; vitreous strand, 2; traction of the retina, 3; partial retinal detachment (less than 2 quadrant), 4; extended (more than 2 quadrant) but not total retinal detachment, 5; total retinal detachment. All surgeries were performed under aseptic conditions and pursuant to the regulation of the ARVO Statement for the Use of Animals in Ophthalmic and Vision Research. Only the left eye of each rabbit was used for the experiments.
An important component of PVR is the traction force that is generated when cells of the epiretinal membrane contract. To test if the signaling enzymes that are required for contraction in the in vitro assays also participate in PVR, the cells expressing the various αPDGFR mutants, described in the previous Examples, were assayed in a rabbit PVR model, described above. In this model, rabbits first undergo gas vitrectomy, and then cells are coinjected with […]. The formation of an epiretinal membrane and retinal detachment is observed in living animals over 28 days.
Briefly, PVR was induced by introducing F cells expressing the indicated αPDGFR into the vitreous of the rabbit eyes. The PVR score was evaluated up to 28 days after the surgery according to the classification described above. The mean value and standard error of the scores in a group were indicated. Each group contained 9 or 10 rabbits; the response to parental F cells was previously reported (Andrews et al., supra), and was included here for comparison purposes.

F cells = experiment: Collagen gel contraction assay of F cells expressing αPDGFR mutants; type: cell-based, mouse; details: PDGF-BB (50 ng/ml), 48 hours
Description: The contraction assay was based on a previously described reference, Skuta, G. et al. (1999) J. Biol. Chem. 274:30163, with the following modifications. Fα cells were suspended in 1.5 mg/ml of neutralized collagen I (Cohesion vitrogen 100, Palo Alto, Calif.) at a density of 10^6 cells/ml, and were transferred into the 24-well plate (Falcon, Franklyn Lakes, N.J.) that had been preincubated with phosphate-buffer saline (PBS) with 5 mg/ml of bovine serum albumin (BSA) overnight. The gel was solidified by incubating at 37° C. for 90 minutes, and then the well was flooded with DMEM+5 mg/ml of BSA supplemented with an amount of vitreous such that the final concentration of vitreous in the culture medium was 1, 5 or 20%. The gels were incubated at 37° C. with 5% CO2. The initial gel diameter was 15 mm. The media was replaced every 24 hours and the gel diameter was measured after 48 hours. The extent of contraction was calculated by subtracting the diameter of the well at 48 hours from the initial diameter (15 mm). Each experimental condition was assayed in triplicate, and at least three independent experiments were performed. Unpaired t-test was performed to detect statistic difference in contraction assay.
To determine the signaling pathways that drive contraction, cells expressing the αPDGFR mutants were subjected to the collagen gel contraction assay described above. Accordingly, F cells expressing the indicated αPDGFRs were subjected to the collagen gel assay in the presence of buffer, PDGF-BB (50 ng/ml), TGFβ1 (1 ng/ml), or FBS (10%). The data presented are the mean±standard deviation measured at the 48 hours time point. Each experimental condition was assayed in triplicate, and at least 3 independent experiments were performed.

PLCγ = experiment: Co-immunoprecipitation of PLCγ with αPDGFR mutants in F cells; type: cell-based, mouse; details: 50 ng/ml PDGF-BB, 5 minutes
Description: as §1

GST-PLCγ = experiment: In vitro kinase assay of immunoprecipitated mutant αPDGFRs with exogenous substrate; type: biochemical; details: 292 immunoprecipitates, [32P]-γ ATP, 30° C., 5 min
Description: Mutant αPDGFRs were selectively immunoprecipitated with the 292 antibody, and samples representing 2×10^5 cells from 292 antibodies were subjected to an in vitro kinase assay. Immunoprecipitates were preincubated with 2 μg of GST protein for 10 min at 0° C., then 2 μg of Glutathione S-transferase fusion phospholipase C-gamma (GST-PLCγ, an exogenous substrate, 10 μCi of γ-[^32P] ATP (DuPont NEN Research Products, Boston, Mass.), and universal kinase buffer (UKB; 20 mM Pipes, pH 7.0, 10 mM MnCl2, 20 μg/ml aprotinin) were added. The samples were incubated at 30° C. for 5 min. The proteins were separated by 7.5% sodium dodecyl sulfate-polyacrylamide gel electrophoresis (SDS-PAGE), the gel was dried, and the radiolabeled protein was detected by autoradiography.

T1 sequence (P16234 24-1089): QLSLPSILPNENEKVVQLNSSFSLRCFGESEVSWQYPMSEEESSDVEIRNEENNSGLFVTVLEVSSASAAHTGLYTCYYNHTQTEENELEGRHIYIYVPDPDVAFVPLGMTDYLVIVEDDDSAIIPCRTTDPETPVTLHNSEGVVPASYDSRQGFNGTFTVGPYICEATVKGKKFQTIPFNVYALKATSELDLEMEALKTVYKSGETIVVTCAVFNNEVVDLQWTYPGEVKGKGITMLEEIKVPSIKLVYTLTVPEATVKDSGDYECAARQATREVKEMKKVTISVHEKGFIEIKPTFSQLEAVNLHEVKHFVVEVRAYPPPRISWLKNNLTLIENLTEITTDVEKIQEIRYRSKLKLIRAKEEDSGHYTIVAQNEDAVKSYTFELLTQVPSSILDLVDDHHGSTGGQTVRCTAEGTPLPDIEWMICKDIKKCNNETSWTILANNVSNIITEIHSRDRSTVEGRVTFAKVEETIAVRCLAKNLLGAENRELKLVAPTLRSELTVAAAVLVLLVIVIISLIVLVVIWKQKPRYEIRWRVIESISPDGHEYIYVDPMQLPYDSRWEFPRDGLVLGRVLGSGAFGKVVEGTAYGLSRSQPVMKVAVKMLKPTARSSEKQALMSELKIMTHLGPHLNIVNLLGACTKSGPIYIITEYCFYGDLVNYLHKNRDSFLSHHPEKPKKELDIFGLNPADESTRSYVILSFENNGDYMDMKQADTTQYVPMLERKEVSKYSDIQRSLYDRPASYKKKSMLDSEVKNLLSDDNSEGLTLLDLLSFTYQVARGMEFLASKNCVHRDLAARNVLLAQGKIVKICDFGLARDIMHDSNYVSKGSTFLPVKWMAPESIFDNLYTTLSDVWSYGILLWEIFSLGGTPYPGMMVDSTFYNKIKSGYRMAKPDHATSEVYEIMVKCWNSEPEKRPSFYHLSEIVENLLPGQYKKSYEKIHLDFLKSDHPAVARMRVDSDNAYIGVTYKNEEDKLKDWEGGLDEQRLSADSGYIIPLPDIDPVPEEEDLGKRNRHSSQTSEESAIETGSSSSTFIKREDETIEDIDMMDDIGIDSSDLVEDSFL

Substance: PDGF
- PDGF-induced contraction (FCX^2, Fα and Fβ cells): triggered the same extent of contraction of the Fα and Fβ cells
- tyrosine phosphorylation of the αPDGFR (αPDGFR): greatly increased the receptor's phosphotyrosine content

Substance: F720: αPDGFR mutant, Tyr to Phe substitution at 720
- recruitment of SHP-2 (Properties) (SHP-2): failed to efficiently associate; also recorded: Fails to recruit SHP-2
- potential to induce PVR (PVR score) (rabbit eyes): induced PVR similarly to the WT receptor-expressing cells
- PDGF-dependent contraction (F cells): somewhat reduced response

Substance: F1018: αPDGFR mutant, Tyr to Phe substitution at 1018
- recruitment or activation of PLCγ (Properties) (PLCγ): failed to efficiently associate; also recorded: Fails to recruit or activate
- potential to induce PVR (PVR score) (rabbit eyes): significantly reduced
- PDGF-dependent contraction (F cells): severely compromised contraction

Substance: E587K: human αPDGFR point mutant, glutamic acid at position 587 changed to lysine; SEQ ID NO: 4
- kinase activity towards exogenous substrate GST-PLCγ (GST-PLCγ): comparable to the WT receptor

Substance: T665M: human αPDGFR point mutant, threonine at position 665 changed to methionine; SEQ ID NO: 6
- kinase activity towards exogenous substrate GST-PLCγ (GST-PLCγ): more active than the WT receptor
